Results taken from patent US12668600B2 (Kumquat Biosciences Inc., priority 2023, dated 2026).

Experiments:
Assay type in all cases: biochemical
KRAS WT = target: T1, KRAS WT (Homo sapiens, UniProt P01116); test: HTRF KRAS-SOS1 interaction assay, wildtype KRAS; details: binned ≤2 μM / >2 μM, read-out: Inhibition of KRAS WT (IC50)
T1 construct: made in house; host or cells: E. coli, e.g. BL21 (DE3)
Procedure, shortened: (§1)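 GST-tagged KRAS (WT or mutant) with anti-GST-Eu donor and His-hSOS1 with anti-6His-XL665 acceptor were combined in 5 mM HEPES pH 7.4, 150 mM NaCl, 1 mM DTT, 0.05% BSA, 0.0025% Igepal. After ~10 min, HTRF was read (ex 337, em 620/665 nm); IC50 from 665/620 ratio.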

KRAS G12D = target: T2, KRAS G12D (Homo sapiens, UniProt P01116, G12D); test: HTRF KRAS-SOS1 interaction assay, KRAS G12D; details: binned ≤2 μM / >2 μM, read-out: Inhibition of KRAS G12D (IC50)
T2 construct: made in house; host or cells: E. coli, e.g. BL21 (DE3)
Procedure, shortened: as §1

KRAS G12V = target: T3, KRAS G12V (Homo sapiens, UniProt P01116, G12V); test: HTRF KRAS-SOS1 interaction assay, KRAS G12V; details: binned ≤2 μM / >2 μM, read-out: Inhibition of KRAS G12V (IC50)
T3 construct: made in house; host or cells: E. coli, e.g. BL21 (DE3)
Procedure, shortened: as §1

KRAS G12S = target: T4, KRAS G12S (Homo sapiens, UniProt P01116, G12S); test: HTRF KRAS-SOS1 interaction assay, KRAS G12S; details: binned ≤2 μM / >2 μM, read-out: Inhibition of KRAS G12S (IC50)
T4 construct: made in house; host or cells: E. coli, e.g. BL21 (DE3)
Procedure, shortened: as §1

T4 sequence (P01116 1-188 isoform P01116-2 G12S): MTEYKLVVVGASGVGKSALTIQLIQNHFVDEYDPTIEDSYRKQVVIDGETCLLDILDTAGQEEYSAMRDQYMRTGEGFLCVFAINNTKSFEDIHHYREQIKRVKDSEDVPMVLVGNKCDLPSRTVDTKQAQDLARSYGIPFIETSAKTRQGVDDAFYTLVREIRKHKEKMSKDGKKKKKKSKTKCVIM
T1 sequence (P01116 1-188 isoform P01116-2): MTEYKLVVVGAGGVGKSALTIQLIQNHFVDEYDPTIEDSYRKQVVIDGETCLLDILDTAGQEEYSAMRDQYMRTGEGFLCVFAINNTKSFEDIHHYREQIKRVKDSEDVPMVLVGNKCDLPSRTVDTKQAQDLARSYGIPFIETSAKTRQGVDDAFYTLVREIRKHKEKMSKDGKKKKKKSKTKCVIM
T3 sequence (P01116 1-188 isoform P01116-2 G12V): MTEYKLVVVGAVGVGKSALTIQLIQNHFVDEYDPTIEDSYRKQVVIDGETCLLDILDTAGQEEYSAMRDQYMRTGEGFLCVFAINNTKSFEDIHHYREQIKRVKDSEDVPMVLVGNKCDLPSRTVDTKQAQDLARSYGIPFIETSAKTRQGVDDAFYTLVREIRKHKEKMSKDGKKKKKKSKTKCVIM
T2 sequence (P01116 1-188 isoform P01116-2 G12D): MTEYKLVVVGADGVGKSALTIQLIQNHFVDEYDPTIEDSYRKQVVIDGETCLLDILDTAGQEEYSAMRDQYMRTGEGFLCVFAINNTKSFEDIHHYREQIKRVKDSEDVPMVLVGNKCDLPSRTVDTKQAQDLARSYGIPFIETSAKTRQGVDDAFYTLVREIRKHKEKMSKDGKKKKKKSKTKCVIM

| IC50 (KRAS WT) [nM] | IC50 (KRAS G12D) [nM] | IC50 (KRAS G12V) [nM] | IC50 (KRAS G12S) [nM] | SMILES |
| --- | --- | --- | --- | --- |
| ≤ 2000 | ≤ 2000 | ≤ 2000 | ≤ 2000 | CC[S+]([O-])[C@H]1CN2CCC[C@@]2(COc2nc3c4c(c(Cl)c(-c5ccc(F)c6sc(N)c(C#N)c56)c(F)c4n2)OCCN3[C@H](C)c2cccnc2N)C1 (mixture of isomers) [Compound 906, 2-amino-4-(4-((R)-1-(2-aminopyridin-3-yl)ethyl)-8-chloro-2-(((2R,7aS)-2-(ethylsulfinyl)tetrahydro-1H-pyrrolizin-7a(5H)-yl)methoxy)-10-fluoro-5,6-dihydro-4H-[1,4]oxazepino[5,6,7-de]quinazolin-9-yl)-7-fluorobenzo[b]thiophene-3-carbonitrile] |
| ≤ 2000 | ≤ 2000 | ≤ 2000 | ≤ 2000 | N#Cc1c(N)sc2c(F)ccc(-c3c(C(F)(F)F)c4c5c(nc(OC[C@@]67CCCN6C[C@H](F)C7)nc5c3F)N([C@H](CCCN3CCCCC3)c3cccnc3N)CCO4)c12 (single isomer, unassigned) [Compound 704] |
| ≤ 2000 | ≤ 2000 | ≤ 2000 | ≤ 2000 | C=C(F)[C@@H](c1cccnc1N)N1CCOc2c(Cl)c(-c3ccc(F)c4sc(N)c(C#N)c34)c(F)c3nc(OC[C@@]45CCCN4C[C@H](F)C5)nc1c23 [Compound 601, 2-amino-4-(4-((R)-1-(2-aminopyridin-3-yl)-2-fluoroallyl)-8-chloro-10-fluoro-2-(((2R,7aS)-2-fluorotetrahydro-1H-pyrrolizin-7a(5H)-yl)methoxy)-5,6-dihydro-4H-[1,4]oxazepino[5,6,7-de]quinazolin-9-yl)-7-fluorobenzo[b]thiophene-3-carbonitrile] |
| ≤ 2000 | ≤ 2000 | ≤ 2000 | ≤ 2000 | N#Cc1c(N)sc2c(F)ccc(-c3c(Cl)c4c5c(nc(OC[C@@]67CCCN6C[C@H](F)C7)nc5c3F)N([C@H](C#CC3CC3)c3cccnc3N)CCO4)c12 [Compound 609, 2-amino-4-(4-((R)-1-(2-aminopyridin-3-yl)-3-cyclopropylprop-2-yn-1-yl)-8-chloro-10-fluoro-2-(((2R,7aS)-2-fluorotetrahydro-1H-pyrrolizin-7a(5H)-yl)methoxy)-5,6-dihydro-4H-[1,4]oxazepino[5,6,7-de]quinazolin-9-yl)-7-fluorobenzo[b]thiophene-3-carbonitrile] |
| ≤ 2000 | ≤ 2000 | ≤ 2000 | ≤ 2000 | C[C@H](c1cccnc1N)N1CCOc2c(Cl)c(-c3ccc(F)c4sc(N)c(C#N)c34)c(F)c3nc(OC[C@@]45CCCN4CC(CP(C)(C)=O)C5)nc1c23 (mixture of isomers) [Compound 839, 2-amino-4-(4-((R)-1-(2-aminopyridin-3-yl)ethyl)-8-chloro-2-(((7aS)-2-((dimethylphosphoryl)methyl)tetrahydro-1H-pyrrolizin-7a(5H)-yl)methoxy)-10-fluoro-5,6-dihydro-4H-[1,4]oxazepino[5,6,7-de]quinazolin-9-yl)-7-fluorobenzo[b]thiophene-3-carbonitrile] |
| ≤ 2000 | ≤ 2000 | ≤ 2000 | ≤ 2000 | C[C@H](Oc1nc2c3c(c(C(F)(F)F)c(-c4ccc(F)c5sc(N)c(C#N)c45)c(F)c3n1)OCCN2[C@H](C)c1cccnc1N)[C@@H]1C[C@@H](F)CN1C [Compound 890, 2-amino-4-(4-((R)-1-(2-aminopyridin-3-yl)ethyl)-10-fluoro-2-((S)-1-((2S,4R)-4-fluoro-1-methylpyrrolidin-2-yl)ethoxy)-8-(trifluoromethyl)-5,6-dihydro-4H-[1,4]oxazepino[5,6,7-de]quinazolin-9-yl)-7-fluorobenzo[b]thiophene-3-carbonitrile] |
| ≤ 2000 | ≤ 2000 | ≤ 2000 | ≤ 2000 | N#Cc1c(N)sc2c(F)ccc(-c3c(C(F)(F)F)c4c5c(nc(OC[C@@]67CCCN6C[C@H](F)C7)nc5c3F)N([C@H](CC3CCOCC3)c3cc(F)cnc3N)CCO4)c12 [Compound 634, 2-amino-4-(4-((R)-1-(2-amino-5-fluoropyridin-3-yl)-2-(tetrahydro-2H-pyran-4-yl)ethyl)-10-fluoro-2-(((2R,7aS)-2-fluorotetrahydro-1H-pyrrolizin-7a(5H)-yl)methoxy)-8-(trifluoromethyl)-5,6-dihydro-4H-[1,4]oxazepino[5,6,7-de]quinazolin-9-yl)-7-fluorobenzo[b]thiophene-3-carbonitrile] |
| > 2000 | > 2000 | > 2000 | > 2000 | C[C@@H]1COCCN1CC1(COc2nc3c4c(c(C(F)(F)F)c(-c5ccc(F)c6sc(N)c(C#N)c56)c(F)c4n2)OCCN3[C@H](C)c2cccnc2N)CC1 (single isomer, unassigned) [Compound 807] |
| ≤ 2000 | ≤ 2000 | ≤ 2000 | ≤ 2000 | Cc1c(F)c(N)cc(-c2nc3c4c(nc(O[C@@H](C)[C@@H]5CCCN5C)nc4c2F)N([C@H](C)c2cccnc2N)C[C@H](C)O3)c1C(F)(F)F (single isomer, unassigned) [Compound 816] |
| ≤ 2000 | ≤ 2000 | ≤ 2000 | ≤ 2000 | CO[C@H]1CCN(C)[C@@H]1[C@H](C)Oc1nc2c3c(c(C(F)(F)F)c(-c4ccc(F)c5sc(N)c(C#N)c45)c(F)c3n1)OCCN2[C@H](C)c1cc(Cl)cnc1N [Compound 667, 2-amino-4-(4-((R)-1-(2-amino-5-chloropyridin-3-yl)ethyl)-10-fluoro-2-((S)-1-((2R,3S)-3-methoxy-1-methylpyrrolidin-2-yl)ethoxy)-8-(trifluoromethyl)-5,6-dihydro-4H-[1,4]oxazepino[5,6,7-de]quinazolin-9-yl)-7-fluorobenzo[b]thiophene-3-carbonitrile] |
| ≤ 2000 | ≤ 2000 | ≤ 2000 | ≤ 2000 | CO[C@H]1CCN(C)[C@@H]1COc1nc2c3c(c(C(F)(F)F)c(-c4ccc(F)c5sc(N)c(C#N)c45)c(F)c3n1)OCCN2[C@H](C)c1cc(F)cnc1N (single isomer, unassigned) [Compound 774] |
| ≤ 2000 | ≤ 2000 | ≤ 2000 | ≤ 2000 | N#Cc1c(N)sc2c(F)ccc(-c3c(C(F)(F)F)c4c5c(nc(OC[C@@]67CCCN6[C@H](COc6nccnc6C(F)F)CC7)nc5c3F)N([C@@H](c3cccnc3N)C(F)F)CCO4)c12 (single isomer, unassigned) [Compound 605] |
| ≤ 2000 | ≤ 2000 | ≤ 2000 | ≤ 2000 | C[C@H](c1cccnc1N)N1CCOc2c(Cl)c(-c3ncc(F)c4sc(N)c(C#N)c34)c(F)c3nc(OC[C@@]45CCCN4C[C@H](F)C5)nc1c23 (single isomer, unassigned) [Compound 825] |
| ≤ 2000 | ≤ 2000 | ≤ 2000 | ≤ 2000 | COCC[C@H](c1cccnc1N)N1CCOc2c(C(F)(F)F)c(-c3ccc(F)c4sc(N)c(C#N)c34)c(F)c3nc(OC[C@@]45CCCN4C[C@H](F)C5)nc1c23 [Compound 782, 2-amino-4-(4-((R)-1-(2-aminopyridin-3-yl)-3-methoxypropyl)-10-fluoro-2-(((2R,7aS)-2-fluorotetrahydro-1H-pyrrolizin-7a(5H)-yl)methoxy)-8-(trifluoromethyl)-5,6-dihydro-4H-[1,4]oxazepino[5,6,7-de]quinazolin-9-yl)-7-fluorobenzo[b]thiophene-3-carbonitrile] |
| ≤ 2000 | ≤ 2000 | ≤ 2000 | ≤ 2000 | C[C@@H]1COCCN1CC1(COc2nc3c4c(c(C(F)(F)F)c(-c5ccc(F)c6sc(N)c(C#N)c56)c(F)c4n2)OCCN3[C@H](C)c2cccnc2N)CC1 (single isomer, unassigned) [Compound 608] |
| ≤ 2000 | ≤ 2000 | ≤ 2000 | ≤ 2000 | C[C@H](c1cncnc1N)N1CCOc2c(C(F)(F)F)c(-c3ccc(F)c4sc(N)c(C#N)c34)c(F)c3nc(OC[C@@]45CCCN4C[C@H](F)C5)nc1c23 (single isomer, unassigned) [Compound 777] |
| ≤ 2000 | > 2000 | ≤ 2000 | ≤ 2000 | N#Cc1c(N)sc2c(F)ccc(-c3c(C(F)(F)F)c4c5c(nc(OC[C@@]67CCCN6C[C@H](F)C7)nc5c3F)N([C@H](CCC3CC(F)(F)C3)c3cccnc3N)CCO4)c12 (single isomer, unassigned) [Compound 689] |
| ≤ 2000 | ≤ 2000 | ≤ 2000 | ≤ 2000 | C[C@H](c1cccnc1N)N1CCOc2c(Cl)c(-c3ccc(F)c4sc(N)c(C#N)c34)c(F)c3nc(OC[C@@]45CCCN4C[C@@]4(CC4(F)F)C5)nc1c23 [Compound 740, 2-amino-4-((R)-4-((R)-1-(2-aminopyridin-3-yl)ethyl)-8-chloro-2-(((1S,7a'S)-2,2-difluorodihydro-1′H,3′H-spiro[cyclopropane-1,2′-pyrrolizin]-7a′ (5′H)-yl)methoxy)-10-fluoro-5,6-dihydro-4H-[1,4]oxazepino[5,6,7-de]quinazolin-9-yl)-7-fluorobenzo[b]thiophene-3-carbonitrile] |
